Test results from PubChem BioAssay AID2765 (Broad Institute, 2010).
Active and inactive are the calls of the source.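 The calls were made as follows: active = half-maximal concentration for the rise in caspase light signal at or below ten times the top tested dose; inconclusive = flat fit between 30% and 70% activity, or unreliable curve fit; inactive = the rest.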

Test system: MEF A1-2A-BIM cells, caspase 3/7 luminescence, 3 h
Assay: caspase activation in A1-2A-BIM MEF cells, dose response, A1 inhibitor project, cell-based, luminescence, retest (AID 2765)

SMILES	EC50
Cc1noc(C)c1CSCC(=O)N(C)CC(=O)Nc1ccc(Cl)c(Cl)c1	> 35 µM (inactive)
Cc1nccc2c1[nH]c1ccccc12	> 35 µM (inactive)
COc1ccc(C2CC(c3c(O)cc(C)oc3=O)=NCCS2)c(OC)c1 (stereo not drawn)	> 35 µM (inactive)
Cc1cccc(/C=C/C(=O)c2ccc([N+](=O)[O-])o2)c1	> 35 µM (inactive)
CC(=O)OC(C)(C)/C=C/C(=O)[C@](C)(O)C1[C@H](O)C[C@@]2(C)C3CC=C4C(C[C@H](O)C(=O)C4(C)C)[C@]3(C)C(=O)C[C@]12C (stereo partly drawn)	> 35 µM (inactive)
CCOc1cc2c(cc1OCC)C(c1ccccc1)N(c1ccccc1)C(=O)C2 (stereo not drawn)	> 35 µM (inactive)
COc1cc2ncnc(NCc3ccc(F)cc3)c2cc1OC	> 35 µM (inactive)
O=C(CCS(=O)(=O)c1ccccc1)N(CCCN1CCOCC1)c1nc2ccc(F)cc2s1	> 35 µM (inactive)
CC(C)(C)N(Cc1ccccc1)C(=O)COC(=O)CNC(=O)c1ccco1	> 35 µM (inactive)
COc1ccc2c(-c3cc4ccc(OCc5ccc(F)cc5)cc4oc3=O)cc(=O)oc2c1	30.1 µM
CCOC(=O)c1cccc(NC(=O)CN(c2ccc(C)cc2)S(=O)(=O)c2c(C)noc2C)c1	> 35 µM (inactive)
CCCCN1C(=O)C(NC(C)=O)c2cc(Br)ccc21 (stereo not drawn)	> 35 µM (inactive)
CCOC(=O)C1=NOC(COc2ccccc2C=O)C1 (stereo not drawn)	> 35 µM (inactive)
CC(=O)c1ccc(N(C(=O)c2csnn2)C(C(=O)NC(C)(C)C)c2cccs2)cc1 (stereo not drawn)	> 35 µM (inactive)
CCOC(=O)C(=Cc1ccc(OCc2ccc([N+](=O)[O-])cc2)c(OC)c1)C(=O)OCC	> 35 µM (inactive)
OC(Cn1cncn1)(Cn1cncn1)c1ccc(F)cc1F	> 35 µM (inactive)
COC(=O)CCC(=O)c1ccc(OC)c(Cl)c1	> 35 µM (inactive)
COc1ccc(S(=O)(=O)Nc2ccccc2C(=O)NC2CC2)cc1NC(C)=O	> 35 µM (inactive)
O=C(O)COc1ccccc1C=NNc1ccc([N+](=O)[O-])cc1S(=O)(=O)Nc1ccc(Cl)cc1	> 35 µM (inactive)
CSc1nc(N)c(N=Nc2ccc([As](=O)(O)O)cc2)c(=O)[nH]1	> 35 µM (inactive)
CC(C)c1ccc(NC(=S)NNC(=O)c2cccs2)cc1	> 35 µM (inactive)
O=C(NCCCNc1ccc(C(F)(F)F)cc1[N+](=O)[O-])c1ccc(F)cc1	> 35 µM (inactive)
COc1ccc(NC(=O)/C=C/C(=O)O)c([N+](=O)[O-])c1	> 35 µM (inactive)

SMILES	EC50
COCCNC(=S)N(CCc1c(C)[nH]c2ccccc12)Cc1cccnc1	> 35 µM (inactive)
Cc1ccc2c(c1)C(=O)C(=O)N2Cc1ccc(Br)cc1	> 35 µM (inactive)
O=C(c1ccco1)N1CCN(C(=O)c2cc(-c3ccccn3)nc3ccc(Cl)cc23)CC1	> 35 µM (inactive)
COc1ccc(CNS(=O)(=O)c2ccccc2Br)cc1	> 35 µM (inactive)
Cn1cnc([N+](=O)[O-])c1S(=O)(=O)c1cccc(Cl)c1	> 35 µM (inactive)
O=Cc1cccc(OC(=O)c2ccc(Cl)cc2Cl)c1	> 35 µM (inactive)
COc1ccccc1CC(=O)N1CCOCC1	> 35 µM (inactive)
Cc1ccc(S(=O)(=O)CC#CCOC(=O)c2ccc([N+](=O)[O-])cc2)cc1	> 35 µM (inactive)
CCOC(=O)CCCNS(=O)(=O)c1c(C)ccc2nsnc12	> 35 µM (inactive)
OC(CNCC1COc2ccccc2O1)COc1ccc(Cl)cc1 (stereo not drawn)	> 35 µM (inactive)
COC(=O)C(C)Oc1cc(OC(C)C(=O)OC)c2c(-c3ccccc3)cc(=O)oc2c1 (stereo not drawn)	> 35 µM (inactive)
Cc1c(C(=O)c2ccccc2C(=O)O)sc2ccccc12	> 35 µM (inactive)
O=C(NCc1ccccc1)c1cncc(Br)c1	> 35 µM (inactive)
COc1ccc(C2Nc3ccc4ccccc4c3-c3c2c(=O)oc2ccccc32)cc1 (stereo not drawn)	11 µM
O=C(CN1CCN(Cc2ccccc2)CC1)Nc1ccc(Br)cc1	> 35 µM (inactive)
COC(=O)c1c(NC(=O)C2CC(C)=C(C)CC2C(=O)O)sc2c1CCCCC2 (stereo not drawn)	> 35 µM (inactive)
Cc1cc(C(F)(F)F)n2ncc(-c3cccc(Br)c3)c2n1	> 35 µM (inactive)
Clc1ccc(C(Cn2ccnc2)OCc2c(Cl)cccc2Cl)c(Cl)c1 (stereo not drawn)	> 35 µM (inactive)
Oc1ccc(/C=N/N2CCN(C3c4ccccc4-c4ccccc43)CC2)cc1O	> 35 µM (inactive)
Nc1nc(Cl)nc2c1ncn2[C@H]1C[C@H](O)[C@@H](CO)O1	> 35 µM (inactive)
O=C(Cc1cn2ccsc2n1)Nc1cccc2cnccc12	> 35 µM (inactive)
C[C@H](CO)N1C[C@H](C)[C@@H](CN(C)C(=O)NC2CCCCC2)Oc2c(NS(=O)(=O)c3cn(C)cn3)cccc2C1=O	> 35 µM (inactive)
O=C1/C(=C\c2c(NCCOCCO)nc3ccccn3c2=O)SC(=S)N1Cc1ccco1	> 35 µM (inactive)

SMILES	EC50
Cc1cccc(C)c1OCc1nnc(SCC(=O)Nc2nccs2)n1-c1ccccc1	> 35 µM (inactive)
Cc1[nH]c(=S)c(C#N)c(C)c1Cc1ccc(Cl)cc1Cl	> 35 µM (inactive)
CCN(CC)C(=O)CCCc1c[nH]c2ccccc12	> 35 µM (inactive)
COc1cc(S(=O)(=O)Nc2ccncc2)ccc1F	> 35 µM (inactive)
Nc1cccc(Oc2cnccn2)c1	> 35 µM (inactive)
O=C1ON=C(c2ccc(Cl)cc2)/C1=C/c1ccc(O)cc1	> 35 µM (inactive)
CCC(Sc1ncccc1Nc1ccccn1)C(=O)O (stereo not drawn)	> 35 µM (inactive)
COC(=O)C1=C(C)N(Cc2ccccc2)C(=NCc2cc(OC)c(OC)c(OC)c2)N[C@H]1c1ccccc1	> 35 µM (inactive)
N#Cc1cccnc1N1CCN(C(=O)c2cccc3c2C(=O)c2ccc(-c4ccc(Cl)c(C(F)(F)F)c4)cc2S3(=O)=O)CC1	> 35 µM (inactive)
CCS(=O)(=O)c1nc2ccccc2n1Cc1ccccn1	> 35 µM (inactive)
CCN(C[C@H]1N[C@@](CC)(C(=O)OC)[C@H]2C(=O)N(Cc3ccccc3)C(=O)[C@@H]12)C(=O)c1ccc(F)cc1	> 35 µM (inactive)
COC(=O)[C@]1(C)CCC[C@@]2(C)C3CC[C@@]4(C)C[C@]3(CCC21)CC4=NO (stereo partly drawn)	> 35 µM (inactive)
CCOC(=O)c1c(C)oc2c1c(CN1CCN(C(=O)OCC)CC1)c(O)c1ccccc12	8.16 µM
Cc1cc(NC(=O)COC(=O)C(Cc2ccccc2)NC(=O)c2ccco2)no1 (stereo not drawn)	> 35 µM (inactive)
COc1ccc(C2(C(=O)NCCCN(C)C)CCOCC2)cc1	> 35 µM (inactive)
CC(C)(C)C#CC(CCc1ccccc1)OS(N)(=O)=O (stereo not drawn)	> 35 µM (inactive)
COc1ccc(S(N)(=O)=O)cc1C(=O)OCCCOc1ccc(F)cc1	> 35 µM (inactive)
COc1ccccc1C(=O)NC(=O)COC(=O)CCS(=O)(=O)c1ccc(C)cc1	> 35 µM (inactive)
CCCN1C(=O)/C(=N\OCC(=O)NC23CC4CC(CC(C4)C2)C3)c2ccccc21	> 35 µM (inactive)
Cc1cc(C)n(CCC(=O)N/N=C/c2ccc(Cl)c([N+](=O)[O-])c2)n1	> 35 µM (inactive)
CCOCCCNC(=O)C1(O)c2cc(Br)ccc2NC(=O)N1c1ccc(CC)cc1 (stereo not drawn)	> 35 µM (inactive)
Cc1ccc(NC(=O)c2ccc(Cl)c(N3C(=O)C=CC3=O)c2)cc1	> 35 µM (inactive)
